In the supplement of paper PMC10307832:

Experiments:
Test in all cases: relative viability (nuclei count vs DMSO), 5 days (fraction); higher = more cells survive
Bosutinib + OSI-027 = compound: COc1cc(Nc2c(C#N)cnc3cc(OCCCN4CCN(C)CC4)c(OC)cc23)c(Cl)cc1Cl [Bosutinib] + COc1cccc2cc(-c3nc([C@H]4CC[C@H](C(=O)O)CC4)n4ncnc(N)c34)[nH]c12 [OSI-027] (partner 0.5 µM)
Summary of the method: (§1)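 Relative viability was taken as the ratio of nuclei in treated wells to nuclei in vehicle wells. Lung cancer cell lines in 1536-well plates received compounds by pin tool one day after seeding, either one drug alone or a fixed anchor-drug dose plus five library-drug doses (not always all listed) in √10 steps. Nuclei were counted on 4× images after 5 days of treatment, and values are medians of duplicate plates.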

Bosutinib + Phenformin = compound: COc1cc(Nc2c(C#N)cnc3cc(OCCCN4CCN(C)CC4)c(OC)cc23)c(Cl)cc1Cl [Bosutinib] + N=C(N)NC(=N)NCCc1ccccc1 [Phenformin] (partner 250 µM)
Summary of the method: as §1

Bosutinib + Foretinib = compound: COc1cc(Nc2c(C#N)cnc3cc(OCCCN4CCN(C)CC4)c(OC)cc23)c(Cl)cc1Cl [Bosutinib] + COc1cc2c(Oc3ccc(NC(=O)C4(C(=O)Nc5ccc(F)cc5)CC4)cc3F)ccnc2cc1OCCCN1CCOCC1 [Foretinib] (partner 0.25 µM)
Summary of the method: as §1

Bosutinib + Alpelisib = compound: COc1cc(Nc2c(C#N)cnc3cc(OCCCN4CCN(C)CC4)c(OC)cc23)c(Cl)cc1Cl [Bosutinib] + Cc1nc(NC(=O)N2CCC[C@H]2C(N)=O)sc1-c1ccnc(C(C)(C)C(F)(F)F)c1 [Alpelisib] (partner 2 µM)
Summary of the method: as §1

Bosutinib + Crizotinib = compound: COc1cc(Nc2c(C#N)cnc3cc(OCCCN4CCN(C)CC4)c(OC)cc23)c(Cl)cc1Cl [Bosutinib] + C[C@@H](Oc1cc(-c2cnn(C3CCNCC3)c2)cnc1N)c1c(Cl)ccc(F)c1Cl [Crizotinib] (partner 1 µM)
Summary of the method: as §1

Cell Line | relative viability (Bosutinib + OSI-027; first compound 0.01 µM) | relative viability (Bosutinib + OSI-027; first compound 0.03162 µM) | relative viability (Bosutinib + OSI-027; first compound 0.1 µM) | relative viability (Bosutinib + OSI-027; first compound 1 µM) | relative viability (Bosutinib + Phenformin; first compound 0.01 µM) | relative viability (Bosutinib + Phenformin; first compound 0.03162 µM) | relative viability (Bosutinib + Phenformin; first compound 0.1 µM) | relative viability (Bosutinib + Phenformin; first compound 1 µM) | relative viability (Bosutinib + Foretinib; first compound 0.01 µM) | relative viability (Bosutinib + Foretinib; first compound 0.03162 µM) | relative viability (Bosutinib + Foretinib; first compound 0.1 µM) | relative viability (Bosutinib + Foretinib; first compound 1 µM) | relative viability (Bosutinib + Alpelisib; first compound 0.01 µM) | relative viability (Bosutinib + Alpelisib; first compound 0.03162 µM) | relative viability (Bosutinib + Alpelisib; first compound 0.1 µM) | relative viability (Bosutinib + Alpelisib; first compound 1 µM) | relative viability (Bosutinib + Crizotinib; first compound 0.01 µM) | relative viability (Bosutinib + Crizotinib; first compound 0.03162 µM) | relative viability (Bosutinib + Crizotinib; first compound 0.1 µM) | relative viability (Bosutinib + Crizotinib; first compound 1 µM)
201T | 0.874 | 0.712 | 0.725 | 0.633 | 0.444 | 0.421 | 0.449 | 0.425 | 1.08 | 1.06 | 0.991 | 0.548 | 1 | 1.02 | 1.01 | 0.909 | 0.982 | 1.06 | 1.1 | 0.945
A549 | – | – | – | – | 0.197 | 0.169 | 0.149 | 0.124 | 0.946 | 1 | 0.92 | 0.908 | 0.731 | 0.78 | 0.734 | 0.621 | 0.761 | 0.66 | 0.724 | 1.01
A-427 | 0.489 | 0.498 | 0.553 | 0.48 | 0.46 | 0.369 | 0.331 | 0.26 | 1.02 | 1 | 1.14 | 0.972 | 1.03 | 1.11 | 1.03 | 0.978 | 0.867 | 0.954 | 0.877 | 0.61
ABC-1 | 0.507 | 0.471 | 0.432 | 0.577 | 0.186 | 0.196 | 0.224 | 0.26 | 0.902 | 1.17 | 1.21 | 0.895 | 0.938 | 0.944 | 0.897 | 0.731 | 1.01 | 1.04 | 1.21 | 0.708
BEN | 0.318 | 0.313 | 0.294 | 0.261 | 0.254 | 0.257 | 0.253 | 0.25 | 0.755 | 0.637 | 0.682 | 0.516 | 0.986 | 1.04 | 0.888 | 0.669 | 0.836 | 0.857 | 0.795 | 0.519
CAL-12T | 0.735 | 0.637 | 0.803 | 0.565 | 0.567 | 0.584 | 0.52 | 0.382 | 1.11 | 1.09 | 1.11 | 0.834 | 1.09 | 1.09 | 1.2 | 0.787 | 0.543 | 0.7 | 0.638 | 0.362
COR-L23 | 0.754 | 0.732 | 0.75 | 0.778 | 0.432 | 0.451 | 0.449 | 0.496 | 1.04 | 0.938 | 0.971 | 0.967 | 0.803 | 0.799 | 0.747 | 0.836 | 0.663 | 0.589 | 0.571 | 0.749
COR-L 105 | 0.623 | 0.669 | 0.698 | 0.479 | 0.55 | 0.522 | 0.519 | 0.357 | 1.05 | 1.05 | 0.895 | 0.844 | 0.869 | 1.27 | 0.871 | 0.565 | 0.938 | 0.798 | 0.617 | 0.507
ChaGo-K-1 | 0.568 | 0.501 | 0.576 | 0.647 | 0.536 | 0.503 | 0.497 | 0.515 | 1 | 0.866 | 0.981 | 0.931 | – | – | – | – | 1.21 | 1.14 | 1.09 | 1.17
EKVX | 0.79 | 0.764 | 0.654 | 0.55 | 0.213 | 0.248 | 0.236 | 0.223 | 0.723 | 0.82 | 0.693 | 0.469 | 0.894 | 0.89 | 0.847 | 0.476 | 0.895 | 0.753 | 1.01 | 0.481
EMC-BAC-2 | 0.388 | 0.383 | 0.385 | 0.37 | 0.464 | 0.545 | 0.488 | 0.376 | 1.02 | 0.981 | 1.06 | 0.768 | 0.757 | 0.731 | 0.723 | 0.657 | 0.763 | 0.756 | 0.789 | 0.759
EPLC-272H | 0.262 | 0.34 | 0.312 | 0.342 | 0.275 | 0.353 | 0.331 | 0.335 | 0.657 | 0.677 | 0.704 | 0.58 | 0.937 | 1.15 | 1.03 | 0.854 | 0.904 | 1.17 | 1.05 | 0.818
H3255 | 0.558 | 0.653 | 0.642 | 0.412 | 0.361 | 0.359 | 0.356 | 0.309 | 0.835 | 0.885 | 0.969 | 0.79 | 0.686 | 0.743 | 0.669 | 0.198 | 0.901 | 0.855 | 0.853 | 0.354
HARA | 0.497 | 0.512 | 0.503 | 0.344 | 0.522 | 0.431 | 0.376 | 0.45 | 0.869 | 0.872 | 0.878 | 0.646 | 0.842 | 0.817 | 0.874 | 0.502 | 1.14 | 0.955 | 0.995 | 0.642
HCC-15 | 0.736 | 0.622 | 0.648 | 0.734 | 0.478 | 0.466 | 0.471 | 0.389 | 1.07 | 1.05 | 1.04 | 0.874 | 0.844 | 0.9 | 0.924 | 0.85 | 0.809 | 0.846 | 0.844 | 0.771
HCC-44 | 0.525 | 0.673 | 0.594 | 0.571 | 0.247 | 0.278 | 0.185 | 0.388 | – | – | – | – | 0.749 | 0.877 | 0.761 | 0.772 | 0.809 | 0.782 | 0.764 | 0.755
